Source: the supplement of paper PMC11061612

Tests used:
Experiment in all cases: combination Emax (second highest fraction inhibited in the dose matrix, 72 h); higher = more inhibition; extreme values may be limits of the assay
[1] = system: NCI-H322M (Lung Adenocarcinoma)
Summary of the method: (§1)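 After 24 hours at 37°C and 5% CO2 in 1536-well plates, cells in DMEM/F12 or RPMI plus 10% FBS received two-drug dose matrices for 72 hours. Viability came from CellTiter-Glo 2.0 luminescence and was scaled as inhibition, anchored at 0 by vehicle wells and at 1 by blank wells. Combination Emax is taken as the second-highest inhibition in the matrix, and Bliss excess as the observed combination effect less EA + EB − EA·EB, with EA and EB the single-agent effects.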

NH-12 (Neuroblastoma) = system: NH-12 (Neuroblastoma)
Summary of the method: as §1

RPMI-7951 (Melanoma) = system: RPMI-7951 (Melanoma)
Summary of the method: as §1

GI-1 (Glioblastoma) = system: GI-1 (Glioblastoma)
Summary of the method: as §1

EW-13 (Ewing's Sarcoma) = system: EW-13 (Ewing's Sarcoma)
Summary of the method: as §1

A704 (Kidney Carcinoma) = system: A704 (Kidney Carcinoma)
Summary of the method: as §1

[2] = system: HC-1 (Other Blood Carcinomas)
Summary of the method: as §1

[3] = system: LC4-1 (B-Lymphoblastic Leukemia)
Summary of the method: as §1

[4] = system: MFE-319 (Endometrial Carcinoma)
Summary of the method: as §1

[5] = system: BV-173 (Chronic Myelogenous Leukemia)
Summary of the method: as §1

EW-3 (Ewing's Sarcoma) = system: EW-3 (Ewing's Sarcoma)
Summary of the method: as §1

[6] = system: OVISE (Ovarian Carcinoma)
Summary of the method: as §1

[7] = system: TGBC11TKB (Gastric Carcinoma)
Summary of the method: as §1

[8] = system: NCI-N87 (Gastric Carcinoma)
Summary of the method: as §1

[9] = system: EBC-1 (Squamous Cell Lung Carcinoma)
Summary of the method: as §1

[10] = system: KYSE-150 (Esophageal Squamous Cell Carcinoma)
Summary of the method: as §1

[11] = system: PF-382 (T-Lymphoblastic Leukemia)
Summary of the method: as §1

[12] = system: JHH-7 (Hepatocellular Carcinoma)
Summary of the method: as §1

GOTO (Neuroblastoma) = system: GOTO (Neuroblastoma)
Summary of the method: as §1

[13] = system: SCC-9 (Oral Cavity Carcinoma)
Summary of the method: as §1

SMILES	combination Emax [1]	combination Emax (NH-12 (Neuroblastoma))	combination Emax (RPMI-7951 (Melanoma))	combination Emax (GI-1 (Glioblastoma))	combination Emax (EW-13 (Ewing's Sarcoma))	combination Emax (A704 (Kidney Carcinoma))	combination Emax [2]	combination Emax [3]	combination Emax [4]	combination Emax [5]	combination Emax (EW-3 (Ewing's Sarcoma))	combination Emax [6]	combination Emax [7]	combination Emax [8]	combination Emax [9]	combination Emax [10]	combination Emax [11]	combination Emax [12]	combination Emax (GOTO (Neuroblastoma))	combination Emax [13]
CC1(C)CCC(CN2CCN(c3ccc(C(=O)NS(=O)(=O)c4ccc(NCC5CCOCC5)c([N+](=O)[O-])c4)c(Oc4cnc5[nH]ccc5c4)c3)CC2)=C(c2ccc(Cl)cc2)C1 [Venetoclax] + Cn1cnc2c(F)c(Nc3ccc(Br)cc3Cl)c(C(=O)NOCCO)cc21 [Selumetinib] (first compound max 1 µM, 7x7, partner max 3 µM)	0.541	0.777	0.424	0.179	0.213	0.158	0.521	1	0.145	0.906	0.643	0.206	0.313	0.242	0.768	0.273	0.18	0.145	0.236	0.386
COc1cccc(OCCCN)c1-c1cc(Nc2cnc(C#N)cn2)n[nH]1 [Prexasertib] + O=C(c1cc(Cc2n[nH]c(=O)c3ccccc23)ccc1F)N1CCN(C(=O)C2CC2)CC1 [Olaparib] (first compound max 1 µM, 7x7, partner max 10 µM)	0.83	0.893	0.974	0.933	0.698	0.421	1	0.982	0.811	0.994	0.815	0.689	0.952	0.668	0.603	0.61	0.897	0.442	0.858	0.464
COc1nnc2ccc(N3CCC(c4ccc(OCCN5CCN(C)C(=O)[C@H]5C)cc4)CC3)nn12 [AZD5153] + CCN(CCO)CCCOc1ccc2c(Nc3cc(CC(=O)Nc4cccc(F)c4)[nH]n3)ncnc2c1 [AZD2811] (first compound max 1 µM, 7x7, partner max 1 µM)	0.507	0.739	0.613	0.873	0.362	0.497	0.572	0.963	0.535	0.936	0.626	0.589	0.311	0.547	0.764	0.688	0.98	0.361	0.858	0.428
COc1cccc(OCCCN)c1-c1cc(Nc2cnc(C#N)cn2)n[nH]1 [Prexasertib] + Cc1cc2ncnn2cc1Nc1ncc2c(n1)n(C1CCOCC1)c(=O)n2C [AZD7648] (first compound max 1 µM, 7x7, partner max 10 µM)	0.979	0.908	0.971	0.987	0.512	0.504	1	0.97	0.865	0.964	0.736	0.716	0.96	0.776	0.588	0.513	0.934	0.458	0.908	0.49
CN(CCO)CC[C@H](CSc1ccccc1)Nc1ccc(S(=O)(=O)NC(=O)c2ccc(N3CCC([C@@H](O)c4ccccc4-c4ccc(Cl)cc4)CC3)cc2)cc1S(=O)(=O)C(F)(F)F [AZD4320] + C[C@@H](Nc1cc(F)cc(F)c1)c1cc(C(=O)N(C)C)cc2c(=O)cc(N3CCOCC3)oc12 [AZD8186] (first compound max 1 µM, 7x7, partner max 3 µM)	0.506	0.998	0.701	0.813	0.911	0.57	0.965	1	0.427	0.971	0.898	0.881	0.338	0.638	0.972	0.298	1	0.368	0.831	0.746
C[C@@H]1COCCN1c1cc(C2([S@](C)(=N)=O)CC2)nc(-c2ccnc3[nH]ccc23)n1 [AZD6738] + O=C(c1cc(Cc2n[nH]c(=O)c3ccccc23)ccc1F)N1CCN(C(=O)C2CC2)CC1 [Olaparib] (first compound max 10 µM, 7x7, partner max 10 µM)	0.697	0.867	0.886	0.926	0.757	0.438	0.76	0.952	0.567	0.988	0.962	0.663	0.796	0.693	0.487	0.567	0.916	0.339	0.808	0.314
C[C@@H](c1ccc2nccn2c1)n1nnc2ncc(-c3cnn(C)c3)nc21 [Savolitinib] + Cc1c2c(nn1C)CSCc1cc(n(C)n1)CSc1cc(c3ccccc3c1)OCCCc1c(C(=O)O)n(C)c3c-2c(Cl)ccc13 [AZD5991] (first compound max 1 µM, 7x7, partner max 1 µM)	0.086	0.202	0.266	0.587	0.313	0.256	0.216	0.939	0.406	0.704	0.558	0.148	0.507	0.22	1	0.219	0.134	0.205	0.804	0.185
COc1nnc2ccc(N3CCC(c4ccc(OCCN5CCN(C)C(=O)[C@H]5C)cc4)CC3)nn12 [AZD5153] + C[C@@H]1COCCN1C2=NC(=NC(=C2)C3(CC3)[S@](=N)(=O)C)C4=C5C=CNC5=NC=C4 [AZD6738] (first compound max 1 µM, 7x7, partner max 10 µM)	0.865	0.938	0.925	0.97	0.831	0.681	0.713	0.975	0.785	0.95	0.851	0.754	0.801	0.766	0.798	0.746	1	0.324	0.979	0.45
Cc1c2c(nn1C)CSCc1cc(n(C)n1)CSc1cc(c3ccccc3c1)OCCCc1c(C(=O)O)n(C)c3c-2c(Cl)ccc13 [AZD5991] + CC1(C)CCC(CN2CCN(c3ccc(C(=O)NS(=O)(=O)c4ccc(NCC5CCOCC5)c([N+](=O)[O-])c4)c(Oc4cnc5[nH]ccc5c4)c3)CC2)=C(c2ccc(Cl)cc2)C1 [Venetoclax] (first compound max 1 µM, 7x7, partner max 1 µM)	0.155	0.892	0.903	0.954	0.675	0.344	0.762	1	0.881	0.95	0.953	0.442	0.792	0.23	0.199	0.17	0.337	0.221	0.795	0.256
CC1(C)CCC(CN2CCN(c3ccc(C(=O)NS(=O)(=O)c4ccc(NCC5CCOCC5)c([N+](=O)[O-])c4)c(Oc4cnc5[nH]ccc5c4)c3)CC2)=C(c2ccc(Cl)cc2)C1 [Venetoclax] + CCN(CCO)CCCOc1ccc2c(Nc3cc(CC(=O)Nc4cccc(F)c4)[nH]n3)ncnc2c1 [AZD2811] (first compound max 1 µM, 7x7, partner max 1 µM)	0.188	0.933	0.454	0.389	0.109	0.167	0.712	1	0.243	0.958	0.779	0.311	0.424	0.242	0.225	0.308	0.905	0.184	0.693	0.25
Cc1c2c(nn1C)CSCc1cc(n(C)n1)CSc1cc(c3ccccc3c1)OCCCc1c(C(=O)O)n(C)c3c-2c(Cl)ccc13 [AZD5991] + C=CCn1c(=O)c2cnc(Nc3ccc(N4CCN(C)CC4)cc3)nc2n1-c1cccc(C(C)(C)O)n1 [AZD1775] (first compound max 1 µM, partner max 1 µM)	0.854	0.918	0.957	0.958	0.388	0.43	0.994	0.986	0.913	0.942	0.701	0.633	0.922	0.727	0.299	0.634	0.961	0.415	0.834	0.331
Cc1c2c(nn1C)CSCc1cc(n(C)n1)CSc1cc(c3ccccc3c1)OCCCc1c(C(=O)O)n(C)c3c-2c(Cl)ccc13 [AZD5991] + Cc1cc2ncnn2cc1Nc1ncc2c(n1)n(C1CCOCC1)c(=O)n2C [AZD7648] (first compound max 1 µM, 7x7, partner max 10 µM)	0.459	0.226	0.91	0.672	0.403	0.259	0.456	0.968	0.471	0.946	0.727	0.269	0.359	0.492	0.291	0.57	0.353	0.164	0.72	0.26
